Measured values reported in US20020137929A1, “1 - (3-heterocyclylphenyl) isothiourea, -isourea, -guanidine and -amidine herbicidal agents” (Intellectual Property Department, BASF Aktiengesellschaft, priority 1998, published 2002).

Assays:
[1] = test system: ABUTH (Velvetleaf); test: Postemergence herbicidal evaluation; format: in vivo, Abutilon theophrasti; conditions: postemergence
Method in brief: (§1)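 Compound is applied as a foliar spray to seedlings about two weeks old, formulated in equal parts acetone and water with 0.5% TWEEN 20 and delivered at 40 psi to give about 0.0156–0.500 kg per hectare. Injury is rated visually 0–9 after four to five weeks.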

[2] = test system: IPOHE (Morningglory, Ivyleaf); test: Postemergence herbicidal evaluation; format: in vivo, Ipomoea hederacea; conditions: postemergence
Method in brief: as §1

[3] = test system: SETVI (Foxtail, Green); test: Postemergence herbicidal evaluation; format: in vivo, Setaria viridis; conditions: postemergence
Method in brief: as §1

[4] = test system: GLXMAW (Soybean, Williams); test: Postemergence herbicidal evaluation; format: in vivo, Glycine max, (L.) Merr. cv Williams; conditions: postemergence
Method in brief: as §1

[5] = test system: ZEAMX (Corn, Field); test: Postemergence herbicidal evaluation; format: in vivo, Zea mays; conditions: postemergence
Method in brief: as §1

[6] = test system: ABUTH (Velvetleaf); test: Preemergence herbicidal evaluation; format: in vivo, Abutilon theophrasti; conditions: rated 4-5 weeks after treatment
Method in brief: (§2)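 Visual 0-9 rating vs control (stand, vigor, malformation, size, chlorosis, overall appearance), scored 4-5 wk after spraying. Seeded soil cups were treated preemergence with compound in aqueous acetone, ~0.0156-0.500 kg/ha equivalent.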

[7] = test system: AMBEL (Ragweed, Common); test: Preemergence herbicidal evaluation; format: in vivo, Ambrosia artemisifolia; conditions: rated 4-5 weeks after treatment
Method in brief: as §2

[8] = test system: CASOB (Sicklepod); test: Preemergence herbicidal evaluation; format: in vivo, Cassia obtusifolia; conditions: rated 4-5 weeks after treatment
Method in brief: as §2

[9] = test system: IPOHE (Morningglory, Ivyleaf); test: Preemergence herbicidal evaluation; format: in vivo, Ipomoea hederacea; conditions: rated 4-5 weeks after treatment
Method in brief: as §2

[10] = test system: ECHCG (Barnyardgrass); test: Preemergence herbicidal evaluation; format: in vivo, Echinochloa crus-galli; conditions: rated 4-5 weeks after treatment
Method in brief: as §2

[11] = test system: ECHORC (Watergrass (Calif.)); test: Preemergence weed control under flooded paddy conditions; format: in vivo, Echinochloa oryzoides; conditions: rated 3-4 weeks after treatment
Method in brief: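 Ratings on a 0-9 visual scale cover stand, vigor, malformation, size, chlorosis and overall appearance relative to a control, taken three to four weeks post-treatment. Application was into flood water over freshly sown silt loam at roughly 0.0313 to 0.500 kg/ha.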

[12] = test system: CYPSE (Flatsedge); test: as above; format: in vivo, Cyperus serotinus; conditions: rated 3-4 weeks after treatment
Method in brief: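 Seeds or propagules sown in top 0.5 cm of silt loam soil, flooded 1.5 to 3 cm above surface throughout. Compound in 50/50 v/v aqueous/acetone pipetted into flood water at about 0.0313 to 0.500 kg/ha. Visual 0-9 rating versus control after three to four weeks in greenhouse.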

Cn1c(C(F)(F)F)cc(=O)n(-c2cc(N=C3SCC(=O)N3CC(=O)OCC3CC3)c(Cl)cc2F)c1=O [Compound 124, Cyclopropylmethyl 2-{{2-chloro-5-[3,6-dihydro-3-methyl-2,6-dioxo-4-(trifluoromethyl)-1(2H)-pyrimidinyl]-4-fluorophenyl}imino}-4-oxo-3-thiazolidineacetate]
herbicidal rating ABUTH ([1]; rate 0.0156 kg/ha): 7.0
herbicidal rating ABUTH ([1]; rate 0.0313 kg/ha): 9.0
herbicidal rating ABUTH ([1]; rate 0.0625 kg/ha): 9.0
herbicidal rating IPOHE ([2]; rate 0.0156 kg/ha): 9.0
herbicidal rating IPOHE ([2]; rate 0.0313 kg/ha): 9.0
herbicidal rating IPOHE ([2]; rate 0.0625 kg/ha): 9.0
herbicidal rating SETVI ([3]; rate 0.0156 kg/ha): 3.0
herbicidal rating SETVI ([3]; rate 0.0313 kg/ha): 5.0
herbicidal rating SETVI ([3]; rate 0.0625 kg/ha): 5.0
herbicidal rating GLXMAW ([4]; rate 0.0156 kg/ha): 6.7
herbicidal rating GLXMAW ([4]; rate 0.0313 kg/ha): 7.3
herbicidal rating GLXMAW ([4]; rate 0.0625 kg/ha): 7.0
herbicidal rating ZEAMX ([5]; rate 0.0156 kg/ha): 6.3
herbicidal rating ZEAMX ([5]; rate 0.0313 kg/ha): 7.3
herbicidal rating ZEAMX ([5]; rate 0.0625 kg/ha): 8.0
Preemergence herbicidal rating ABUTH ([6]; rate 0.0156 kg/ha): 0.0
Preemergence herbicidal rating ABUTH ([6]; rate 0.0313 kg/ha): 0.0
Preemergence herbicidal rating ABUTH ([6]; rate 0.0625 kg/ha): 0.0
Preemergence herbicidal rating ABUTH ([6]; rate 0.1250 kg/ha): 2.0
Preemergence herbicidal rating ABUTH ([6]; rate 0.2500 kg/ha): 4.0
Preemergence herbicidal rating ABUTH ([6]; rate 0.5000 kg/ha): 7.0
Preemergence herbicidal rating AMBEL ([7]; rate 0.0156 kg/ha): 0.0
Preemergence herbicidal rating AMBEL ([7]; rate 0.0313 kg/ha): 0.0
Preemergence herbicidal rating AMBEL ([7]; rate 0.0625 kg/ha): 4.0
Preemergence herbicidal rating AMBEL ([7]; rate 0.1250 kg/ha): 9.0
Preemergence herbicidal rating AMBEL ([7]; rate 0.2500 kg/ha): 9.0
Preemergence herbicidal rating AMBEL ([7]; rate 0.5000 kg/ha): 9.0
Preemergence herbicidal rating CASOB ([8]; rate 0.0156 kg/ha): 0.0
Preemergence herbicidal rating CASOB ([8]; rate 0.0313 kg/ha): 0.0
Preemergence herbicidal rating CASOB ([8]; rate 0.0625 kg/ha): 1.0
Preemergence herbicidal rating CASOB ([8]; rate 0.1250 kg/ha): 0.0
Preemergence herbicidal rating CASOB ([8]; rate 0.2500 kg/ha): 3.0
Preemergence herbicidal rating CASOB ([8]; rate 0.5000 kg/ha): 0.0
Preemergence herbicidal rating IPOHE ([9]; rate 0.0156 kg/ha): 0.0
Preemergence herbicidal rating IPOHE ([9]; rate 0.0313 kg/ha): 0.0
Preemergence herbicidal rating IPOHE ([9]; rate 0.0625 kg/ha): 0.0
Preemergence herbicidal rating IPOHE ([9]; rate 0.1250 kg/ha): 0.0
Preemergence herbicidal rating IPOHE ([9]; rate 0.2500 kg/ha): 1.0
Preemergence herbicidal rating IPOHE ([9]; rate 0.5000 kg/ha): 6.0
Preemergence herbicidal rating ECHCG ([10]; rate 0.0156 kg/ha): 0.0
Preemergence herbicidal rating ECHCG ([10]; rate 0.0313 kg/ha): 0.0
Preemergence herbicidal rating ECHCG ([10]; rate 0.0625 kg/ha): 0.0
Preemergence herbicidal rating ECHCG ([10]; rate 0.1250 kg/ha): 0.0
Preemergence herbicidal rating ECHCG ([10]; rate 0.2500 kg/ha): 0.0
Preemergence herbicidal rating ECHCG ([10]; rate 0.5000 kg/ha): 1.0
herbicidal effect rating, ECHORC ([11]; 0.0313 kg/ha): 5.0
herbicidal effect rating, ECHORC ([11]; 0.0625 kg/ha): 5.0
herbicidal effect rating, ECHORC ([11]; 0.1250 kg/ha): 9.0
herbicidal effect rating, ECHORC ([11]; 0.2500 kg/ha): 8.0
herbicidal effect rating, CYPSE ([12]; 0.0313 kg/ha): 0.0
herbicidal effect rating, CYPSE ([12]; 0.0625 kg/ha): 0.0
herbicidal effect rating, CYPSE ([12]; 0.1250 kg/ha): 2.0
herbicidal effect rating, CYPSE ([12]; 0.2500 kg/ha): 3.0
